Experimental data: US5719278A, “Tricyclic benzazepine vasopressin antagonists” (American Cyanamid Company, priority 1996, dated 1998)

Columns and labels:
[1] = molecular target: T1, Rat Kidney Medullary V2 Receptors (Rattus norvegicus, UniProt Q00788); assay: Binding Assay to Rat Kidney Medullary V2 Receptors; details: Rat Kidney Medullary V2 Receptors (no asterisk)
T1 construct: Medullary tissues from rat kidneys are dissected out; from tissue; host or cells: rat kidney medulla membranes
Experimental: Binding Assay to Rat Kidney Medullary V2 Receptors
Medullary tissues from rat kidneys are dissected out, cut into small pieces and let soak in a […] sodium chloride solution containing 1.0 mM EDTA with many changes of the liquid phase, until the solution is clear of blood. The tissue is homogenized in a 0.25M sucrose solution containing 1.0 mM EDTA and 0.1 mM PMSF using a Potter-Elvehjem homogenizer with a teflon pestle. The homogenate is filtered through several layers (4 layers) of cheese cloth. The filtrate is rehomogenized using a dounce homogenizer, with a tight fitting pestle. The final homogenate is contrifuged at 1500×g for 15 min. The nuclear pellet is discarded and the supernatant fluid recentrifuged at 40,000×g for 30 min. The resulting pellet formed contains a dark inner part with the exterior, slightly pink. The pink outer part is suspended in a small amount of 50.0 mM Tris.HCl buffer, pH 7.4. The protein content is determined by the Lowry's method (Lowry et al, J. Biol. Chem., 1953). The membrane suspension is stored at -70° C., in 50.0 mM Tris.HCl, containing 0.2% inactivated BSA and 0.1 mM PMSF in aliquots of 1.0 ml containing 10.0 mg protein per ml of suspension until use in subsequent binding experiments.
For binding experiments, the following is added in μl volume to wells of a 96 well format of a microtiter plate: 100.0 μl of 100.0 mM Tris.HCl buffer containing 0.2% heat inactivated BSA, 10.0 mM MgCl2 and a mixture of protease inhibitors: leupeptin, 1.0 mg %; aprotinin, 1.0 mg %; 1,10-phenanthroline, 2.0 mg %; trypsin inhibitor, 10.0 mg % and 0.1 mM PMSF, 20.0 μl of [^3 H]Arginine^8, vasopressin (S.A. 75.0 Ci/mmole) at 0.8 nM and the reaction initiated by the addition of 80.0 μl of tissue membranes (200.0 μg tissue protein). The plates are left undisturbed on the bench top for 120 min. to reach equilibrium. Non-specific binding is assessed in the presence of 1.0 μM of unlabeled ligand, added in 20 μl volume. For test compounds, these are solubilized in 50% dimethylsulfoxide (DMSO) and added in 20.0 μl volume to a final incubation volume of 200 μl. Upon completion of binding, the content of each well is filtered off, using a Brandel® cell Harvester (Gaithersburg, Md.). The radioactivity trapped on the filter disk by the ligand-receptor complex is assessed by liquid scintillation counting in a Packard LS Counter, with an efficiency of 65% for tritium. The data are analyzed for IC50 values by the LUNDON-2 program for competition (LUNDON SOFTWARE, Ohio).

oxytocin receptors = molecular target: T2, oxytocin receptors (Rattus norvegicus, UniProt P70536); assay: Oxytocin Receptor Binding; set-up: species or system Sprague-Dawley rat; details: for IC50: 1.0 nM [^3 H]OT, 60 min., 22° C.
T2 construct: The uteri are dissected out, cleaned of fat and connective tissues; from tissue; host or cells: uterus of DES-treated female Sprague-Dawley rats
T2 sequence (P70536 1-388): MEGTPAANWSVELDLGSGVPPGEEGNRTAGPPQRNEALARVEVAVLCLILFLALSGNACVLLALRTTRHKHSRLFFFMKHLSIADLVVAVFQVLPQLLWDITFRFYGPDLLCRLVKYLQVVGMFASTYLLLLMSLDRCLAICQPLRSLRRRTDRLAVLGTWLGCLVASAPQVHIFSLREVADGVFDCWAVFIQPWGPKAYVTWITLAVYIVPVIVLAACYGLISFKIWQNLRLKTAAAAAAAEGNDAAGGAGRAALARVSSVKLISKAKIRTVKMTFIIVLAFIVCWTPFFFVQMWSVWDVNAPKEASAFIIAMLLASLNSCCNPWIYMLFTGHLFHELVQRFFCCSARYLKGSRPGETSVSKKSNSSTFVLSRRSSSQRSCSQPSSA
Experimental: Oxytocin Receptor Binding
Female Sprague-Dawley rats weighing approximately 200-250 g are injected intramuscularly (i.m.) with 0.3 mg/kg of body weight of diethylstilbestrol (DES). The rats are sacrificed 18 hours later under pentobarbital anesthesia. The uteri are dissected out, cleaned of fat and connective tissues and rinsed in 50 ml of normal saline. The tissue pooled from six rats is homogenized in 50 ml of […] TriS.HCl, containing 0.5 mM dithiothreitol and 1.0 mM EDTA, adjusted to pH 7.4, using a polytron at setting 6 with three passes of 10 sec each. The homogenate is passed through two (2) layers of cheesecloth and the filtrate contrifuged at 1000×g for 10 min. The clear supernatant is removed and recentrifuged at 165,000×g for 30 min. The resulting pellet containing the oxytocin receptors is resuspended in 50.0 mM Tris.HCl containing 5.0 mM MgCl2 at pH 7.4, to give a protein concentration of 2.5 mg/ml of tissue suspension. This preparation is used in subsequent binding assays with [^3 H]Oxytocin.
Binding of 3,5-[^3 H]Oxytocin ([^3 H]OT) to its receptors is done in microtiter plates using [^3 H]OT, at various concentrations, in an assay buffer of 50.0 mM Tris.HCl, pH 7.4 and containing 5.0 mM MgCl2, and a mixture of protease inhibitors: BSA, 0.1 mg; aprotinin, 1.0 mg; 1,10-phenanthroline, 2.0 mg; […], 10.0 mg; and PMSF, 0.3 mg per 100 ml of buffer solution. Non-specific binding is determined in the presence of 1.0 uM unlabeled OT. The binding reaction is terminated after 60 min., at 22° C., by rapid filtration through glass fiber filters using a Brandel® cell harvester (Biomedical Research and Development Laboratories, Inc., Gaithersburg, Md.). Competition experiments are conducted at equilibrium using 1.0 nM [^3 H]OT and varying the concentration of the displacing agents. The concentrations of agent displacing 50% of [^3 H]OT at its sites (IC50) are calculated by a computer assisted LUNDON-2 program (LUNDON SOFTWARE INC., Ohio, U.S.A.).

T1 sequence (Q00788 whole entry): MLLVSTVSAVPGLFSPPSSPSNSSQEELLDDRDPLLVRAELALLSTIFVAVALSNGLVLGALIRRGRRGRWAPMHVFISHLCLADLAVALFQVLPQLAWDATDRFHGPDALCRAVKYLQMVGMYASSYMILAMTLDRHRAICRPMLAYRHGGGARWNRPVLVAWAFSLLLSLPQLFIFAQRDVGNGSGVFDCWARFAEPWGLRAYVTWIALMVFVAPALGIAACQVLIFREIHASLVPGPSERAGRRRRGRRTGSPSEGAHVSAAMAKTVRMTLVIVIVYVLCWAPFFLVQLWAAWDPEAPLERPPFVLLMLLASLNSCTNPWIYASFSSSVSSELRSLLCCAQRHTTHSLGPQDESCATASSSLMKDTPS

SMILES	IC50 [1] [µM]	IC50 (oxytocin receptors) [nM]	inhibition at 10 µM (oxytocin receptors) [%]
Cc1ccc(F)cc1C(=O)Nc1ccc(C(=O)N2CCc3c[nH]nc3-c3ncccc32)cc1 [Example 367, N-[4-[4(4,5-Dihydropyrazolo[3,4-d]pyrido[3,2-b]azepin-6(1H)-yl)carbonyl]phenyl]-5-fluoro-2-methylbenzamide]	0.03	2100	63
O=C(Nc1ccc(C(=O)N2CCc3cn[nH]c3-c3ncccc32)cc1)c1ccccc1-c1ccccc1 [Example 365, N-[4-[(4,5-Dihydropyrazolo[3,4-d]pyrido[3,2-b]azepin-6(1H)-yl)carbonyl]phenyl][1,1'-biphenyl]-2-carboxamide]	0.0016	2500	57
O=C(Nc1ccc(C(=O)N2CCc3cn[nH]c3-c3sccc32)cc1)c1ccc(F)cc1Cl [Example 1, N-[4-[(4,5-Dihydropyrazolo[3,4-d]thieno[3,2-b]azepin-6(1H)-yl)carbonyl]phenyl]-2-chloro-4-fluorobenzamide]	0.34	2500	93
